Among the data in patent US11026958B2, “Substituted 6-membered aryl or heteroaryl allosteric modulators of nicotinic acetylcholine receptors” (Merck Sharp & Dohme Corp., priority 2016, dated 2021) are EC50 values, retold here.

Like-named read-outs stand apart in the source and are kept apart here.

In this assay the target is human α7 nAChR (Homo sapiens (Human), UniProt P36544). The assay is described as follows: Automated patch-clamp electrophysiology functional assay (Assay A), IonFlux HT. The conditions noted are these: HEK cell line stably expressing human RIC-3 and human α7, whole-cell population patch, 40 μM acetylcholine. In kind it is cell-based. How it is done:
The α7 nAChR positive allosteric modulator (PAM) activity of the present compounds may be tested using assays known in the art. The α7 nAChR PAMs described herein have activities in an automated patch-clamp electrophysiology functional assay as described in the examples. The assay was performed using the IonFlux HT in a whole-cell, population patch configuration. See Golden et al. Assay Drug Dev. Technol. (2011) 9:608-619. The compounds were assessed for their ability to modulate the function of the human α7 nAChR stably expressed in a HEK cell line both in the presence, and in the absence of the natural α7 agonist acetylcholine. By performing a series of such measurements at different concentrations, the effective concentration of the α7 nAChR PAMs (EC50) was determined. See Spencer et al. Assay Drug Dev. Technol. (2012) 10:313-324.
Automated patch-clamp electrophysiology was performed using the IonFlux HT (Fluxion Biosciences Inc., San Francisco, Calif.) in the whole-cell, population patch configuration. Test compounds were assessed for their ability to modulate the function of the α7 nicotinic acetylcholine receptor both in the presence, and in the absence of the natural α7 agonist acetylcholine. A HEK cell line stably expressing both human RIC-3 and human α7 (PrecisION hnAChR α7/RIC-3, Eurofins Pharma, St. Charles, Mo.) was cultured in 175 cm^2 triple-layer tissue culture flasks to no more than 90% confluency in DMEM/F-12 growth media supplemented with 10% heat-inactivated fetal bovine serum, 1% non-essential amino acids, 0.625 μg/mL Puromycin, and 400 μg/mL Geneticin. Immediately prior to assay, cells were detached by first aspirating growth media, rinsing with Dulbecco's phosphate buffered saline, and then adding 10 mL of Accutase (Innovative Cell Technologies, San Diego, Calif.) to the flask and then incubating at 37° C. for 5 minutes. Detached cells were then recovered by the addition of 40 mL of CHO-serum-free media supplemented with 25 mM HEPES, and rocked gently in a 50 mL conical tube for 20 minutes prior to patch-clamp assay. After recovery, cells were pelleted by centrifugation at 1,000 RPM for 1 minute in a compact bench top centrifuge; recovery media was aspirated and cells were resuspended in external recording solution (150 mM NaCl, 5 mM KCl, 2 mM CaCl2, 1 mM MgCl2, 10 mM HEPES, 12 mM dextrose) to a density of 5.0×10^6 cells/mL. The cell suspension was added to the cell inlet wells on an IonFlux HT population patch plate which had previously been rinsed and primed with deionized H2O. Test compounds were serially diluted in DMSO and then resuspended to the final test concentration in external recording solution, with, or without 40 μM acetylcholine added to the external recording solution; test compounds were then transferred to the IonFlux HT population patch plate. Internal recording solution (110 mM TrisPO4, 28 mM TrisBase, 0.1 mM CaCl2, 2 mM MgCl2, 11 mM EGTA, 4 mM MgATP) was added to the internal recording solution inlet wells on the IonFlux HT patch plate previously loaded with cells and test compounds, and the plate loaded into the IonFlux HT instrument. A protocol was executed on the IonFlux HT to trap the cells, break into the cells, and establish the whole-cell recording configuration; cells were voltage-clamped at a holding potential of −60 mV for the duration of the experiment, all experiments were conducted at room temperature, and the IonFlux HT injection pressure was 8 psi for solution applications. Upon establishing the whole-cell configuration, external recording solution was perfused into the recording chambers for 120 seconds and then 40 μM acetylcholine was applied for 1 second and immediately washed off with external recording solution for 60 seconds. The 40 μM acetylcholine-evoked α7 current served as the current response to which subsequent test compound effects, in the presence, or in the absence of 40 μM acetylcholine would be quantified relative to. […]

human α7 nAChR, sequence (P36544 23-502): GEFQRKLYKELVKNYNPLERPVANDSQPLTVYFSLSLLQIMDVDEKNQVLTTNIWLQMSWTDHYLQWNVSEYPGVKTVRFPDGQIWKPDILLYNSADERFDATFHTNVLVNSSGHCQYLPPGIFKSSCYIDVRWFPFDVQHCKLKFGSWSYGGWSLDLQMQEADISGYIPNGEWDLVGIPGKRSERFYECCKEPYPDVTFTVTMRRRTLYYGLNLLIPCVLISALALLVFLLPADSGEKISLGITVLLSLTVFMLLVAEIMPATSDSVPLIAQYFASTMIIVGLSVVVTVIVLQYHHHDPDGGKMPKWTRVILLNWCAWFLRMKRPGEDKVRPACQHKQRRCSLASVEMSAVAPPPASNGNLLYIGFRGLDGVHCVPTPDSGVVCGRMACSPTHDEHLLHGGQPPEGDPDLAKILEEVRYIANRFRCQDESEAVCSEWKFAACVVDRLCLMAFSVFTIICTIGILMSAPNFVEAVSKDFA

Consider `CC(C)Oc1ccc(C2CC2c2ccc(S(N)(=O)=O)cc2)cn1` (racemic) [Example G4, 4-{trans-2-[6-(Propan-2-yloxy)pyridin-3-yl]cyclopropyl}benzenesulfonamide], for which the EC50 was 1 µM (read-out: α7 nAChR EC50) and 0.5 to 5 µM (read-out: α7 nAChR Potency).

Consider `CC(C)(C#N)c1ccc([C@@H]2C[C@H]2c2ccc(S(N)(=O)=O)cc2)cn1` (racemic) [Example G5, 4-{trans-2-[6-(2-Cyanopropan-2-yl)pyridin-3-yl]cyclopropyl}benzenesulfonamide], for which the EC50 is 3.4 µM (read-out: α7 nAChR EC50) and 0.5 to 5 µM (read-out: α7 nAChR Potency).

In the case of `NS(=O)(=O)c1ccc([C@@H]2C[C@H]2c2ccnc(N3CCOCC3)n2)cc1` (relative stereo) [Example 2, 4-{trans-2-[2-(Morpholin-4-yl)pyrimidin-4-yl]cyclopropyl}benzenesulfonamide], the EC50 (read-out: α7 nAChR Potency) fell in the range of 0.5 to 5 µM.

Turning to `NS(=O)(=O)c1ccc([C@@H]2C[C@H]2c2ccc(N3CCCC3)nc2)cc1` (relative stereo) [Example 6, 4-{trans-2-[6-(Pyrrolidin-1-yl)pyridin-3-yl]cyclopropyl}benzenesulfonamide], the EC50 (read-out: α7 nAChR EC50) was determined as 0.72 µM and the EC50 (read-out: α7 nAChR Potency) was in the range of 0.5 to 5 µM.

Turning to `Cc1nc(-c2cccc([C@@H]3C[C@H]3c3ccc(S(N)(=O)=O)cc3)c2)no1` (relative stereo) [Example 7, 4-{trans-2-[3-(5-Methyl-1,2,4-oxadiazol-3-yl)phenyl]cyclopropyl}benzenesulfonamide], the EC50 was 0.32 µM (read-out: α7 nAChR EC50) and 0.1 to 0.5 µM (read-out: α7 nAChR Potency).

Take `CC(C)c1cccc(C2CC2c2ccc(S(N)(=O)=O)cc2)n1` (single isomer, unassigned) [Example 1, 4-{trans-2-[6-(Propan-2-yl)pyridin-2-yl]cyclopropyl}benzenesulfonamide]: the EC50 (read-out: α7 nAChR EC50) came to 0.5 µM and the EC50 (read-out: α7 nAChR Potency) lay within 0.1 to 0.5 µM.

For `NS(=O)(=O)c1ccc(C2CC2c2cccc(C3CCCC3)n2)cc1` (single isomer, unassigned) [Example 3, 4-[trans-2-(6-Cyclopentylpyridin-2-yl)cyclopropyl]benzenesulfonamide], the EC50 (read-out: α7 nAChR EC50) came to 1.5 µM and the EC50 (read-out: α7 nAChR Potency) is 0.5 to 5 µM.

As for `NS(=O)(=O)c1ccc(C2CC2c2ccc(C3CCCC3)cn2)cc1` (single isomer, unassigned) [Example 4, 4-[trans-2-(5-Cyclopentylpyridin-2-yl)cyclopropyl]benzenesulfonamide], the EC50 (read-out: α7 nAChR EC50) came to 1 µM and the EC50 (read-out: α7 nAChR Potency) was 0.5 to 5 µM.

Turning to `CC(C)c1ccnc(C2CC2c2ccc(S(N)(=O)=O)cc2)n1` (single isomer, unassigned) [Example 5, 4-{trans-2-[4-(Propan-2-yl)pyrimidin-2-yl]cyclopropyl}benzenesulfonamide], the EC50 by setting is: (read-out: α7 nAChR EC50) 0.41 µM; (read-out: α7 nAChR Potency) 0.1 to 0.5 µM.

Take `CC(C)c1cc(C2CC2c2ccc(S(N)(=O)=O)cc2)ccn1` (single isomer, unassigned) [Example 8, 4-{trans-2-[2-(Propan-2-yl)pyridin-4-yl]cyclopropyl}benzenesulfonamide]: the EC50 (read-out: α7 nAChR EC50) turned out to be 1.2 µM and the EC50 (read-out: α7 nAChR Potency) is 0.5 to 5 µM.

As to `NS(=O)(=O)c1ccc(C2CC2c2nccc(-c3cccc(F)c3)n2)cc1` (single isomer, unassigned) [Example 10, 4-{trans-2-[4-(3-Fluorophenyl)pyrimidin-2-yl]cyclopropyl}benzenesulfonamide], the EC50 reads like this: (read-out: α7 nAChR EC50) 0.21 µM; (read-out: α7 nAChR Potency) 0.1 to 0.5 µM.

`NS(=O)(=O)c1ccc(C2CC2c2nccc(-c3cncc(C(F)(F)F)c3)n2)cc1` (single isomer, unassigned) [Example 11, 4-(trans-2-{4-[5-(Trifluoromethyl)pyridin-3-yl]pyrimidin-2-yl}cyclopropyl)benzenesulfonamide]: the EC50 is, setting by setting: (read-out: α7 nAChR EC50) 0.24 µM; (read-out: α7 nAChR Potency) 0.1 to 0.5 µM.

As for `CC(C)c1cccc(C2CC2c2ccc(S(N)(=O)=O)cc2)n1` (single isomer, unassigned) [Example A1, 4-{trans-2-[6-(Propan-2-yl)pyridin-2-yl]cyclopropyl}benzenesulfonamide], the EC50 (read-out: α7 nAChR Potency) was in the range of 0.5 to 5 µM.

Turning to `CC(C)c1ccnc(C2CC2c2ccc(S(N)(=O)=O)cc2)c1` (single isomer, unassigned) [Example A2, 4-{trans-2-[4-(Propan-2-yl)pyridin-2-yl]cyclopropyl}benzenesulfonamide], the EC50 runs as follows: (read-out: α7 nAChR EC50) 0.41 µM; (read-out: α7 nAChR Potency) 0.1 to 0.5 µM.

With `CC(C)c1ccc(C2CC2c2ccc(S(N)(=O)=O)cc2)nc1` (single isomer, unassigned) [Example A3, 4-{trans-2-[5-(Propan-2-yl)pyridin-2-yl]cyclopropyl}benzenesulfonamide], the EC50 reads like this: (read-out: α7 nAChR EC50) 0.55 µM; (read-out: α7 nAChR Potency) 0.5 to 5 µM.

As to `NS(=O)(=O)c1ccc([C@@H]2C[C@H]2c2cccc(C3CCCC3)n2)cc1` (single isomer, unassigned) [Example A4, 4-[trans-2-(6-Cyclopentylpyridin-2-yl)cyclopropyl]benzenesulfonamide], the EC50 (read-out: α7 nAChR Potency) is 0.5 to 5 µM.

On to `CC(C)c1ccc(C2CC2c2ccc(S(N)(=O)=O)cc2)nc1` (single isomer, unassigned) [Example A5, 4-{trans-2-[5-(Propan-2-yl)pyridin-2-yl]cyclopropyl}benzenesulfonamide], for which the EC50 (read-out: α7 nAChR Potency) lay in the range of 0.5 to 5 µM.

Consider `CC(C)c1cnc(C2CC2c2ccc(S(N)(=O)=O)cc2)nc1` (single isomer, unassigned) [Example C1, 4-{trans-2-[5-(Propan-2-yl)pyrimidin-2-yl]cyclopropyl}benzenesulfonamide], for which the EC50 is 0.28 µM (read-out: α7 nAChR EC50) and 0.1 to 0.5 µM (read-out: α7 nAChR Potency).

For the compound `NS(=O)(=O)c1ccc([C@@H]2C[C@H]2c2nccc(-c3cccc(F)c3)n2)cc1` (single isomer, unassigned) [Example C4, 4-{trans-2-[4-(3-fluorophenyl)pyrimidin-2-yl]cyclopropyl}benzenesulfonamide], the EC50 is, setting by setting: (read-out: α7 nAChR EC50) 1.9 µM; (read-out: α7 nAChR Potency) 0.5 to 5 µM.

With `NS(=O)(=O)c1ccc([C@@H]2C[C@H]2c2nccc(-c3cncc(C(F)(F)F)c3)n2)cc1` (single isomer, unassigned) [Example C5, 4-(trans-2-{4-[5-(trifluoromethyl)pyridin-3-yl]pyrimidin-2-yl}cyclopropyl)benzenesulfonamide], the EC50 is 3.3 µM (read-out: α7 nAChR EC50) and 0.5 to 5 µM (read-out: α7 nAChR Potency).

For `CC1(C)[C@H](c2ccc(S(N)(=O)=O)cc2)[C@H]1c1nccc(-c2cncc(C(F)(F)F)c2)n1` [Example 9, 4-[(1R,3R)-2,2-Dimethyl-3-{4-[5-(trifluoromethyl)pyridin-3-yl]pyrimidin-2-yl}cyclopropyl]benzenesulfonamide], the EC50 (read-out: α7 nAChR EC50) stood at 1.4 µM and the EC50 (read-out: α7 nAChR Potency) lay within 0.5 to 5 µM.

Consider `CC(C)c1ccc(C2C(c3ccc(S(N)(=O)=O)cc3)C2[Si](C)(C)C)cn1` (centres unmarked) [Example B1, 4-{2-[6-(Propan-2-yl)pyridin-3-yl]-3-(trimethylsilyl)cyclopropyl}benzenesulfonamide], for which the EC50 is, setting by setting: (read-out: α7 nAChR EC50) 1.6 µM; (read-out: α7 nAChR Potency) 0.5 to 5 µM.

As for `NS(=O)(=O)c1ccc([C@H]2[C@H](c3nccc(-c4cccc(F)c4)n3)C2(F)F)cc1` [Example C6, 4-{(1R,3R)-2,2-Difluoro-3-[4-(3-fluorophenyl)pyrimidin-2-yl]cyclopropyl}benzenesulfonamide], the EC50 is 1.6 µM (read-out: α7 nAChR EC50) and 0.5 to 5 µM (read-out: α7 nAChR Potency).

On to “tert-Butyl 4-{4-[trans-2-(4-sulfamoylphenyl)cyclopropyl]pyrimidin-2-yl}piperazine-1-carboxylate [Example D4]”, for which the EC50 reads like this: (read-out: α7 nAChR EC50) 0.72 µM; (read-out: α7 nAChR Potency) 0.5 to 5 µM.
